Data reported in ChEMBL document CHEMBL3044895, “Insecticidal and Antiacetyicholinesterase Activities of Isobutylthioaryl Methanesulfonates” (J Pestic Sci, 1991).

Experiments:
Nilaparvata lugens [1] = experiment: Insecticidal activity against Nilaparvata lugens (brown planthopper) assessed as mortality at 200 ppm after 2 days by foliar spraying method; format: functional; conditions: 48 h
Nilaparvata lugens [2] = experiment: Insecticidal activity against Nilaparvata lugens (brown planthopper) assessed as mortality at 200 ppm after 6 days by foliar spraying method; format: functional; conditions: 144 h
Nephotettix cincticeps [3] = experiment: Insecticidal activity against Nephotettix cincticeps Izumi (green rice leafhopper) assessed as mortality at 200 ppm after 2 days by foliar spraying method; format: functional; conditions: 48 h
Nephotettix cincticeps [4] = experiment: Insecticidal activity against drug-resistant Nephotettix cincticeps Izumi (green rice leafhopper) assessed as mortality […] after 2 days by foliar spraying method; format: functional; conditions: 48 h
Nephotettix cincticeps [5] = experiment: Insecticidal activity against drug-susceptible Nephotettix cincticeps Ageo (green rice leafhopper) assessed as mortality […] after 2 days by foliar spraying method; format: functional; conditions: 48 h
[6] = Drug degradation in sorensen buffer assessed as hydrolysis at 3 x 10^-5 M at pH 7.4 after 24 hr; format: physicochemical; conditions: read-out: Drug degradation
Culex pipiens = experiment: Insecticidal activity against Culex pipiens assessed as mortality at 200 ppm after 2 days by immersion method; format: functional; conditions: 48 h
Tetranychus urticae = experiment: Acaricidal activity against Tetranychus urticae (two-spotted spider mite) assessed as mortality at 200 ppm after 2 days by leaf dipping method; format: functional; conditions: foliar, 48 h
[7] = Lipophilicity, log K of the compound; format: physicochemical; conditions: octanol/water
Nephotettix cincticeps [8] = experiment: Insecticidal activity against Nephotettix cincticeps Izumi (green rice leafhopper) assessed as mortality at 200 ppm after 6 days by foliar spraying method; format: functional; conditions: 144 h
Plutella xylostella = experiment: Insecticidal activity against Plutella xylostella (diamondback moth) assessed as mortality at 200 ppm after 2 days by foliar spraying method; format: functional; conditions: 48 h
[9] = target: Ace-orthologous acetylcholinesterase (Nephotettix cincticeps, UniProt Q9NJH6); experiment: Inhibition of drug-susceptible Nephotettix cincticeps Ageo (green rice leafhopper) acetylcholinesterase; conditions: read-out: I50
Musca domestica = experiment: Insecticidal activity against Musca domestica (house fly) NAIDM; format: functional
Acetylcholinesterase [10] = target: T1, Acetylcholinesterase (Bos taurus, UniProt P23795); experiment: Inhibition of Bos taurus (bovine) erythrocytes acetylcholinesterase; conditions: read-out: I50
T1 sequence (P23795 whole entry): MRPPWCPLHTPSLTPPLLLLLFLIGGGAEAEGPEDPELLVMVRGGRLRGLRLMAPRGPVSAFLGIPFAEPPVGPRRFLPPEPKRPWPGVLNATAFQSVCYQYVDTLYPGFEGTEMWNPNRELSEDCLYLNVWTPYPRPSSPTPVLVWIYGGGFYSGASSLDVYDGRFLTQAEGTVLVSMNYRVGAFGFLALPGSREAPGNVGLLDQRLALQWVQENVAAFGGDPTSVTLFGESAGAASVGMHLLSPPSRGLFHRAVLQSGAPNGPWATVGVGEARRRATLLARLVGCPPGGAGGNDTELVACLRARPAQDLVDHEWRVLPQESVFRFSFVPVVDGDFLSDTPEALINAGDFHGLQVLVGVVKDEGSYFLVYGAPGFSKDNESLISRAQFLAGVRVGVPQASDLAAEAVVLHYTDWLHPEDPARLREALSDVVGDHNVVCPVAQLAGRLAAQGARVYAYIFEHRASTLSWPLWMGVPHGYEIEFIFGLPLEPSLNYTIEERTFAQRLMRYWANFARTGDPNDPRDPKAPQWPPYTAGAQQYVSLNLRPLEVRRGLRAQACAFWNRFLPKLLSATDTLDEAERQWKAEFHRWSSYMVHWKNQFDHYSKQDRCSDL

Acetylcholinesterase [11] = target: Acetylcholinesterase (Musca domestica, UniProt Q7YWJ9); experiment: Inhibition of Musca domestica (house fly) NAIDM head acetylcholinesterase; conditions: read-out: I50
Nephotettix cincticeps [12] = experiment: Insecticidal activity against drug-susceptible Nephotettix cincticeps Ageo (green rice leafhopper) assessed as mortality after 2 days by foliar spraying method; format: functional; conditions: 48 h

Acetylcholinesterase (Musca domestica, UniProt Q7YWJ9), sequence (Q7YWJ9 whole entry): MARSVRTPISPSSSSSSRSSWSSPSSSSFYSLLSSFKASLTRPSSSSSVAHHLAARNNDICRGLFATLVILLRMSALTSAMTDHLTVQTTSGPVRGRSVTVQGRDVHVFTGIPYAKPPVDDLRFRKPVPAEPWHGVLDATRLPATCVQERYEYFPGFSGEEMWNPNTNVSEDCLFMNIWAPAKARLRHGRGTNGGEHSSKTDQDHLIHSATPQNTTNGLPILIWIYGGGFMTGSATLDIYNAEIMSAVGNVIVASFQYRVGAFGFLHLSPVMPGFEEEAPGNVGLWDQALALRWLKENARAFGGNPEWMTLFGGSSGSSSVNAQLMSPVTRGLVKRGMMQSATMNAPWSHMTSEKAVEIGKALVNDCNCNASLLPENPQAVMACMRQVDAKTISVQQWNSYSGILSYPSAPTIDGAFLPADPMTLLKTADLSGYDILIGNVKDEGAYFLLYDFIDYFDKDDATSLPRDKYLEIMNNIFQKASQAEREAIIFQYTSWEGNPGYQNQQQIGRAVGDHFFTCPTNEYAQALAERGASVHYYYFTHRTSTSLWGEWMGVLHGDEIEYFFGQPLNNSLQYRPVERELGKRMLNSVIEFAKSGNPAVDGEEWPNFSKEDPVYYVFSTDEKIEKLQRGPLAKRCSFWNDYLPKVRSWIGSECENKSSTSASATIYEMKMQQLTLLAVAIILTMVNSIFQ
Ace-orthologous acetylcholinesterase, sequence (Q9NJH6 whole entry): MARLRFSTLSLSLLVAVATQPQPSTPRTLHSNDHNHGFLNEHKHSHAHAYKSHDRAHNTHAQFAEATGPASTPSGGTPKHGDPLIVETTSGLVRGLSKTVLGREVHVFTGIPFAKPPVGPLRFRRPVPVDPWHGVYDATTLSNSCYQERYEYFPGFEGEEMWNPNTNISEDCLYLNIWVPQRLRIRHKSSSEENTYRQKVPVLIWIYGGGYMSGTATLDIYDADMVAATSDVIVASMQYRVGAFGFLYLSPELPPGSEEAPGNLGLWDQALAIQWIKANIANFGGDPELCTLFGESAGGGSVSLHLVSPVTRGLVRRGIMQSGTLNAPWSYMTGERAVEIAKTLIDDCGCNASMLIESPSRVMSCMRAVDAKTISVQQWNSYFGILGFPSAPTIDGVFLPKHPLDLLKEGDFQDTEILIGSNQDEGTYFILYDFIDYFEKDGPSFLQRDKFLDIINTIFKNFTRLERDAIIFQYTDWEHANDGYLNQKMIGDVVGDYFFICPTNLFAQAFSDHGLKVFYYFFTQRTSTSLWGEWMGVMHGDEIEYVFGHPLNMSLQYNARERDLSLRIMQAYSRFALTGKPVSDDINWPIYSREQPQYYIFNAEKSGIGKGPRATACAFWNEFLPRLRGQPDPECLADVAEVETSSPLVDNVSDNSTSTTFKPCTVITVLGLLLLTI

| Compound | mortality at 200 ppm (Nilaparvata lugens [1]) | mortality at 200 ppm (Nilaparvata lugens [2]) | mortality at 200 ppm (Nephotettix cincticeps [3]) | LD50 (Nephotettix cincticeps [4]) | LD50 (Nephotettix cincticeps [5]) | degraded at 24 h, 30 µM [6] | mortality at 200 ppm (Culex pipiens) | mortality at 200 ppm (Tetranychus urticae) | log K [7] | mortality at 200 ppm (Nephotettix cincticeps [8]) | mortality at 200 ppm (Plutella xylostella) | IC50 [9] | LD50 (Musca domestica) | IC50 (Acetylcholinesterase [10]) | IC50 (Acetylcholinesterase [11]) | LD50 (Nephotettix cincticeps [12]) |
| --- | --- | --- | --- | --- | --- | --- | --- | --- | --- | --- | --- | --- | --- | --- | --- | --- |
| CC(C)CSc1cc(OS(C)(=O)=O)ccn1 | 70% | 100% | 30% | 66.4 mg/kg | 5.4 mg/kg | 5.9% | 100% | < 10% | 0.379 | 70% | 70% | – | – | – | – | – |
| CC(C)CSc1nccc(OS(C)(=O)=O)n1 | 20% | 20% | 20% | > 100 mg/kg | > 100 mg/kg | 88.8% | 0% | < 10% | 0.18 | 30% | 0% | – | – | – | – | – |
| CC(C)CSc1nc(OS(C)(=O)=O)cs1 | 100% | – | 100% | 11.1 mg/kg | 8.2 mg/kg | 9.8% | 100% | < 10% | 0.316 | – | 0% | 58 µM | 3.9 µg | 31 µM | 2200 µM | 14.9 mg/kg |
| CC(C)CSc1nc(OS(C)(=O)=O)cc2ccccc12 | 0% | 60% | 30% | – | – | – | 40% | < 10% | – | 60% | 0% | – | – | – | – | – |
| CC(C)CS(=O)(=O)c1nc(OS(C)(=O)=O)cs1 | – | – | – | – | – | – | – | – | – | – | – | 0.0019 µM | >100 µg | 1.4 µM | 0.00098 µM | 0.52 mg/kg |
| CC(C)CS(=O)(=O)c1cccc(OS(C)(=O)=O)n1 | – | – | – | – | – | – | – | – | – | – | – | 0.0057 µM | 16 µg | 0.9 µM | 0.15 µM | 1.15 mg/kg |
| CC(C)C[S+]([O-])c1cccc(OS(C)(=O)=O)c1 (stereo unspecified) [3-(ISOBUTYLSULFINYL)PHENYL METHANESULFONATE] | – | – | – | – | – | – | – | – | – | – | – | 0.002 µM | 1.46 µg | 0.56 µM | 12 µM | 3.18 mg/kg |
| CC(C)CS(=O)(=O)c1cccc(OS(C)(=O)=O)c1 [3-(ISOBUTYLSULFONYL)PHENYL METHANESULFONATE] | – | – | – | – | – | – | – | – | – | – | – | 0.046 µM | >100 µg | 1 µM | 0.37 µM | 13 mg/kg |
| CC(C)CSc1cc2ccccc2c(OS(C)(=O)=O)n1 [3-(ISOBUTYLTHIO)ISOQUINOLIN-1-YL METHANESULFONATE] | 0% | 10% | 20% | – | – | – | 50% | < 10% | – | 80% | 0% | – | – | – | – | – |
| CC(C)CSc1cccc(OS(C)(=O)=O)c1 [3-(ISOBUTYLTHIO)PHENYL METHANESULFONATE] | 100% | – | 100% | 26.1 mg/kg | 10.8 mg/kg | 2.6% | 100% | < 10% | 0.541 | – | 0% | – | – | – | – | – |
| CC(C)CSc1cccnc1OS(C)(=O)=O [3-(ISOBUTYLTHIO)PYRIDIN-2-YL METHANESULFONATE] | 50% | 90% | 40% | – | – | – | 30% | < 10% | – | 100% | 0% | – | – | – | – | – |
| CC(C)CS(=O)(=O)c1ccnc(OS(C)(=O)=O)c1 [4-(ISOBUTYLSULFONYL)PYRIDIN-2-YL METHANESULFONATE] | – | – | – | – | – | – | – | – | – | – | – | 0.026 µM | 0.33 µg | 0.8 µM | 1.9 µM | 0.72 mg/kg |
| CC(C)CSc1ccnc(OS(C)(=O)=O)c1 [4-(ISOBUTYLTHIO)PYRIDIN-2-YL METHANESULFONATE] | 100% | – | 100% | 2.8 mg/kg | 2.3 mg/kg | 4.5% | 100% | < 10% | 0.324 | – | 0% | – | – | – | – | – |
| CC(C)CSc1nnc(OS(C)(=O)=O)s1 [5-(ISOBUTYLTHIO)-1,3,4-THIADIAZOL-2-YL METHANESULFONATE] | 0% | 20% | 0% | – | – | – | 0% | < 10% | – | 0% | 70% | – | – | – | – | – |
| CC(C)CSc1ccc(OS(C)(=O)=O)nc1 [5-(ISOBUTYLTHIO)PYRIDIN-2-YL METHANESULFONATE] | 100% | – | 0% | – | – | – | 10% | < 10% | – | 10% | 0% | – | – | – | – | – |
| CC(C)CSc1cncc(OS(C)(=O)=O)c1 [5-(ISOBUTYLTHIO)PYRIDIN-3-YL METHANESULFONATE] | 100% | – | 100% | 3.7 mg/kg | 1.9 mg/kg | 3.8% | 100% | < 10% | 0.258 | – | 0% | – | – | – | – | – |
| CC(C)CSc1cncc(OS(C)(=O)=O)n1 [6-(ISOBUTYLTHIO)PYRAZIN-2-YL METHANESULFONATE] | 100% | – | 50% | 40.1 mg/kg | 4.6 mg/kg | 36.6% | 100% | < 10% | 0.32 | 70% | 0% | – | – | – | – | – |
| CC(C)CSc1ccc(OS(C)(=O)=O)nn1 [6-(ISOBUTYLTHIO)PYRIDAZIN-3-YL METHANESULFONATE] | 0% | 0% | 0% | – | – | – | 0% | < 10% | – | 0% | 0% | – | – | – | – | – |
| CC(C)CSc1cccc(OS(C)(=O)=O)n1 [6-(ISOBUTYLTHIO)PYRIDIN-2-YL METHANESULFONATE] | 100% | – | 100% | 2.9 mg/kg | 1.8 mg/kg | 1.8% | 100% | 72% | 0.4 | – | 0% | 2000 µM | 1.11 µg | 2000 µM | 1300 µM | 1.06 mg/kg |
| CC(C)CSc1cc(OS(C)(=O)=O)ncn1 [6-(ISOBUTYLTHIO)PYRIMIDIN-4-YL METHANESULFONATE] | 80% | 100% | 0% | > 100 mg/kg | > 100 mg/kg | 100% | 0% | < 10% | 0.391 | 0% | 0% | – | – | – | – | – |
| CNC(=O)Oc1cccc2ccccc12 [CARBARIL] | – | – | – | – | – | – | – | – | – | – | – | 0.029 µM | – | – | 0.2 µM | – |
| CCC(C)c1ccccc1OC(=O)NC (stereo unspecified) [FENOBUCARB] | – | – | – | – | – | – | – | – | – | – | – | 0.18 µM | 1.44 µg | 12 µM | 1.4 µM | 11.8 mg/kg |
